Where “and” joins values, the source holds several entries; their conditions need not be identical. Equal entries are not always repeated. Values belong to the compound of their own block, whether it stands above or below them.
Experiment: Viscosity in aqueous solution at 20° C. (Example 82, Tables 1 and 2)
Type: physicochemical
Details: for Viscosity 350 mgI/ml (CALCULATED): calculated for 350 mgI/ml; for Viscosity at 400 mgI/ml (CALCULATED): calculated for 400 mgI/ml
Procedure: The viscosities in aqueous solution at 20° C. for some further compounds described above were determined and are listed in Table 2. […]

[1] = iodine concentration 370 mgI/mL
[2] = iodine concentration 394 mgI/mL

SMILES: O=C(CO)Nc1c(I)c(CO)c(I)c(N(CCO)C(=O)CO)c1I [Example 5, N,N′-Bis(hydroxyacetyl)-N-(2-hydroxyethyl)-3,5-diamino-2,4,6-triiodobenzylalcohol]
Viscosity 350 mgI/ml (CALCULATED): 6.9 mPas
Viscosity at 400 mgI/ml (CALCULATED): 10.0 mPas
Viscosity 20° C. (concentration 435 mgI/ml): 13 mPas
Viscosity 20° C. (concentration 512 mgI/ml): 29 mPas
Viscosity (iodine concentration 435 mgI/mL): 13 mPas

SMILES: O=C(CO)Nc1c(I)c(CO)c(I)c(N(CC(O)CO)C(=O)CO)c1I (stereo not drawn) [Example 7, N,N′-Bis(hydroxyacetyl)-N-(2,3-dihydroxypropyl)-3,5-diamino-2,4,6-triiodobenzylalcohol]
Viscosity at 400 mgI/ml (CALCULATED): 11.5 mPas
Viscosity 20° C. (concentration 361 mgI/ml): 8 mPas
Viscosity (iodine concentration 361 mgI/mL): 8.0 mPas

SMILES: O=C(C(O)CO)N(CCO)c1c(I)c(CO)c(I)c(N(CCO)C(=O)C(O)CO)c1I (stereo not drawn) [Example 14, N,N′-Bis(2,3-dihydroxypropionyl)-N,N-bis(2-hydroxyethyl)-3,5-diamino-2,4,6-triiodobenzylalcohol]
Viscosity at 400 mgI/ml (CALCULATED): 15.8 mPas
Viscosity 20° C. (concentration 373 mgI/ml): 12.0 mPas
Viscosity (iodine concentration 373 mgI/mL): 12 mPas

SMILES: O=C(NCC(O)CO)c1c(I)c(CO)c(I)c(N(CC(O)CO)C(=O)CO)c1I (stereo not drawn) [Example 26, 5-[N′-(2,3-Dihydroxypropyl)-hydroxyacetamido]-3-hydroxymethyl-N-(2,3-dihydroxypropyl)-2,4,6-triiodobenzamide]
Viscosity 350 mgI/ml (CALCULATED): 9.4 mPas
Viscosity at 400 mgI/ml (CALCULATED): 15.1 mPas
Viscosity 20° C. (concentration 385 mgI/ml): 13 mPas
Viscosity (iodine concentration 385 mgI/mL): 13 mPas

SMILES: O=C(NCC(O)CO)c1c(I)c(CO)c(I)c(N(CCO)C(=O)C(O)CO)c1I (stereo not drawn) [Example 30, 5-[N′-(2-Hydroxyethyl)-2,3-dihyroxypropionylamino]-3-hydroxymethyl-N-(2,3-dihydroxypropyl)-2,4,6-triiodobenzamide]
Viscosity 350 mgI/ml (CALCULATED): 13.4 mPas
Viscosity at 400 mgI/ml (CALCULATED): 23.3 mPas
Viscosity 20° C. (concentration 391 mgI/ml): 21 mPas
Viscosity (iodine concentration 391 mgI/mL): 21 mPas

SMILES: O=C(c1c(I)c(CO)c(I)c(N(CCO)C(=O)CO)c1I)N(CCO)CCO [Example 41, 5-[N′-(2-Hydroxyethyl)-hydroxyacetamido]-3-hydroxymethyl-N,N-bis(2-hydroxyethyl)-2,4,6-triiodobenzamide]
Viscosity at 400 mgI/ml (CALCULATED): 12.0 mPas
Viscosity 20° C. (concentration 508 mgI/ml): 40 mPas

SMILES: O=C(c1c(I)c(CO)c(I)c(N(CCO)C(=O)C(O)CO)c1I)N(CCO)CCO (stereo not drawn) [Example 43, 5-[N′-(2-Hydroxyethyl)-2,3-dihydroxypropionylamino]-3-hydroxy-methyl-N,N-bis (2-hydroxyethyl)-2,4,6-triiodobenzamide]
Viscosity at 400 mgI/ml (CALCULATED): 14.2 mPas
Viscosity 20° C. (concentration 488 mgI/ml): 42 mPas

SMILES: CN(CC(O)CO)C(=O)c1c(I)c(CCO)c(I)c(NC(=O)CO)c1I (stereo not drawn) [Example 44, 5-Hydroxyacetamido-3-hydroxyethyl-N-methyl-N-(2,3-dihydroxy-propyl)-2,4,6-triiodobenzamide]
Viscosity at 400 mgI/ml (CALCULATED): 10.8 mPas
Viscosity 20° C. (concentration 481 mgI/ml): 24 mPas

SMILES: CN(CC(O)CO)C(=O)c1c(I)c(CO)c(I)c(N(CCO)C(=O)CO)c1I (stereo not drawn) [Example 45, 5-[N′-(2-Hydroxyethyl)-hydroxyacetamido]-3-hydroxymethyl-N-methyl-N-(2,3-dihydroxypropyl)-2,4,6-triiodobenzamide]
Viscosity at 400 mgI/ml (CALCULATED): 13.9 mPas
Viscosity 20° C. (concentration 483 mgI/ml): 32 mPas

SMILES: CN(CC(O)CO)C(=O)c1c(I)c(CO)c(I)c(NC(=O)C(O)CO)c1I (stereo not drawn) [Example 46]
Viscosity at 400 mgI/ml (CALCULATED): 16.4 mPas
Viscosity 20° C. (concentration 474 mgI/ml): 41 mPas

SMILES: CN(CC(O)CO)C(=O)c1c(I)c(CO)c(I)c(N(CCO)C(=O)C(O)CO)c1I (stereo not drawn) [Example 47, 5-[N′-(2-Hydroxyethyl)-2,3-dihydroxypropionylamino]-3-hydroxymethyl-N-methyl-N-(2,3-dihydroxypropyl)-2,4,6-triiodobenzamide]
Viscosity at 400 mgI/ml (CALCULATED): 16.4 mPas
Viscosity 20° C. (concentration 447 mgI/ml): 28 mPas

More lines, now with the values ahead:

Viscosity at 400 mgI/ml (CALCULATED): 11.0 mPas
Viscosity 20° C. (concentration 370 mgI/ml): 8.3 mPas
Viscosity [1]: 8.3 mPas
SMILES: CC(O)C(=O)Nc1c(I)c(CO)c(I)c(NC(=O)C(C)O)c1I (stereo not drawn) [Example 8, N,N′-Bis(2-hydroxypropionyl)-3,5-diamino-2,4,6-triiodobenzylalcohol]

Viscosity at 400 mgI/ml (CALCULATED): 15 mPas
Viscosity 20° C. (concentration 409 mgI/ml): 17 mPas
Viscosity (iodine concentration 407 mgI/mL): 16 mPas
SMILES: CC(O)C(=O)Nc1c(I)c(CO)c(I)c(N(CC(O)CO)C(=O)C(C)O)c1I (stereo not drawn) [Example 11, N,N′-Bis(2-hydroxypropionyl)-N-(2,3-dihydroxypropyl)-3,5-diamino-2,4,6-triiodobenzylalcohol]

Viscosity at 400 mgI/ml (CALCULATED): 12.2 mPas
Viscosity 20° C. (concentration 398 mgI/ml): 12 mPas
Viscosity (iodine concentration 398 mgI/mL): 12 mPas
SMILES: O=C(Nc1c(I)c(CO)c(I)c(N(CCO)C(=O)C(O)CO)c1I)C(O)CO (stereo not drawn) [Example 13, N,N′-Bis(2,3-dihydroxypropionyl)-N-(2-hydroxyethyl)-3,5-diamino-2,4,6-triiodobenzylalcohol]

Viscosity at 400 mgI/ml (CALCULATED): 17.8 mPas and 14.9 mPas
Viscosity 20° C. (concentration 291 mgI/ml): 5.4 mPas
Viscosity 20° C. (concentration 384 mgI/ml): 15 mPas
Viscosity 20° C. (concentration 394 mgI/ml): 14 mPas
Viscosity (iodine concentration 348 mgI/mL): 7.8 mPas
Viscosity [2]: 14 mPas
Viscosity (iodine concentration 446 mgI/mL): 22 mPas
Viscosity (iodine concentration 537 mgI/mL): 75 mPas
SMILES: O=C(Nc1c(I)c(CO)c(I)c(N(CC(O)CO)C(=O)C(O)CO)c1I)C(O)CO (stereo not drawn) [Example 15, N,N′-Bis(2,3-dihydroxypropionyl)-N-(2,3-dihydroxypropyl)-3,5-diamino-2,4,6-triiodobenzylalcohol]

Viscosity at 400 mgI/ml (CALCULATED): 12.5 mPas
Viscosity 20° C. (concentration 412 mgI/ml): 14 mPas
Viscosity (iodine concentration 412 mgI/mL): 14 mPas
SMILES: CC(O)C(=O)Nc1c(I)c(CO)c(I)c(C(=O)NCC(O)CO)c1I (stereo not drawn) [Example 27, 5-(2-Hydroxypropionylamino)-3-hydroxymethyl-N-(2,3-dihydroxypropyl)-2,4,6-triiodobenzamide]

Viscosity 350 mgI/ml (CALCULATED): 9.2 mPas
Viscosity at 400 mgI/ml (CALCULATED): 14.6 mPas
Viscosity 20° C. (concentration 404 mgI/ml): 15 mPas
Viscosity (iodine concentration 404 mgI/mL): 15 mPas
SMILES: CC(O)C(=O)N(CCO)c1c(I)c(CO)c(I)c(C(=O)NCC(O)CO)c1I (stereo not drawn) [Example 28, 5-[N′-(2-Hydroxyethyl)-2-hydroxypropionylamino]-3-hydroxymethyl-N-(2,3-dihydroxypropyl)-2,4,6-triiodobenzamide]

Viscosity at 400 mgI/ml (CALCULATED): 17.4 mPas
Viscosity 20° C. (concentration 403 mgI/ml): 18 mPas
Viscosity (iodine concentration 403 mgI/mL): 18 mPas
SMILES: CC(CO)(CO)C(=O)Nc1c(I)c(CO)c(I)c(C(=O)NCC(O)CO)c1I (stereo not drawn) [Example 32, 5-(3-Hydroxy-2-methyl-2-hydroxymethyl-propionylamino)-3-hydroxymethyl-N-(2,3-dihydroxypropyl)-2,4,6-triiodobenzamide]

Viscosity at 400 mgI/ml (CALCULATED): 22.9 mPas
Viscosity 20° C. (concentration 370 mgI/ml): 16 mPas
Viscosity [1]: 16 mPas
SMILES: O=C(NCC(O)CO)c1c(I)c(CO)c(I)c(NC(=O)C(CO)(CO)CO)c1I (stereo not drawn) [Example 33, 5-(3-Hydroxy-2,2-dihydroxymethyl-propionylamino)-3-hydroxymethyl-N-(2,3-dihydroxypropyl)-2,46-triiodobenzamide]

Viscosity 350 mgI/ml (CALCULATED): 9.6 mPas
Viscosity at 400 mgI/ml (CALCULATED): 15.5 mPas
Viscosity 20° C. (concentration 394 mgI/ml): 15 mPas
Viscosity [2]: 15 mPas
SMILES: O=C(NC(CO)C(O)CO)c1c(I)c(CO)c(I)c(N(CCO)C(=O)CO)c1I (stereo not drawn) [Example 35, 5-[N′-(2-Hydroxyethyl)-hydroxyacetamido]-3-hydroxymethyl-N-(1,3,4-trihydroxybut-2-yl)-2,4,6-triiodobenzamide]

Viscosity 350 mgI/ml (CALCULATED): 10.6 mPas
Viscosity at 400 mgI/ml (CALCULATED): 17.7 mPas
Viscosity 20° C. (concentration 382 mgI/ml): 15 mPas
Viscosity (iodine concentration 382 mgI/mL): 15 mPas
SMILES: O=C(NC(CO)C(O)CO)c1c(I)c(CO)c(I)c(N(CC(O)CO)C(=O)CO)c1I (stereo not drawn) [Example 36, 5-[N′-(2,3-Dihydroxypropyl)-hydroxyacetamido]-3-hydroxymethyl-N-(1,3 4-trihydroxybut-2-yl)-2,4.6-triiodobenzamide]

Viscosity at 400 mgI/ml (CALCULATED): 15.6 mPas
Viscosity 20° C. (concentration 398 mgI/ml): 16 mPas
Viscosity 20° C. (concentration 458 mgI/ml): 30 mPas
Viscosity (iodine concentration 458 mgI/mL): 30 mPas
SMILES: CC(O)C(=O)Nc1c(I)c(CO)c(I)c(C(=O)NC(CO)C(O)CO)c1I (stereo not drawn) [Example 37, 5-(2-Hydroxypropionylamino)-3-hydroxymethyl-N-(1,3,4-tri-hydroxybut-2-yl)-2,4,6-triiodobenzamide]

Viscosity 350 mgI/ml (CALCULATED): 12.0 mPas
Viscosity at 400 mgI/ml (CALCULATED): 20.4 mPas
Viscosity 20° C. (concentration 372 mgI/ml): 15 mPas
Viscosity (iodine concentration 372 mgI/mL): 15 mPas
SMILES: O=C(NC(CO)C(O)CO)c1c(I)c(CO)c(I)c(N(CCO)C(=O)C(O)CO)c1I (stereo not drawn) [Example 39, 5-[N′-(2-Hydroxyethyl)-2,3-dihydroxypropionylamino]-3-hydroxymethyl-N-(1,3,4-trihydroxybut-2-yl)-2,4,6-triiodobenzamide]

Viscosity at 400 mgI/ml (CALCULATED): 12.8 mPas
Viscosity 20° C. (concentration 488 mgI/ml): 34 mPas
SMILES: O=C(Nc1c(I)c(CO)c(I)c(C(=O)N(CCO)CCO)c1I)C(O)CO (stereo not drawn) [Example 42, 5-(2,3-Dihydroxypropionylamino)-3-hydroxymethyl-N,N-bis(2-hydroxyethyl)-2,4,6-triiodobenzamide]

Viscosity at 400 mgI/ml (CALCULATED): 13.2 mPas
Viscosity 20° C. (concentration 380 mgI/ml): 11 mPas
SMILES: O=C(NC(CO)CO)c1c(I)c(CO)c(I)c(N(CCO)C(=O)CO)c1I [Example 49, 5-[N′-(2-Hydroxyethyl)-hydroxyacetamido]-3-hydroxymethyl-N-(1,3-dihydroxyprop-2-yl)-2,4,6-triiodobenzamide]
